Results: PubChem BioAssay AID1963837 (Molecular Pharmacology Branch, DTP, NCI, 2024)

System: 843126-344-R-J1-PDC complex spheroid viability
Experiment: Anticancer human tumor 843126-344-R-J1-PDC patient-derived melanoma cell line growth inhibition [POLQ]
Details: for IC50: curve of first compound; for viability, T/C: stronger effect = lower value
Summary of the method: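 PDC + HUVEC + MSC complex spheroids; POLQ inhibitors ± partner drugs; top conc. at/near clinical Cmax, else 10 microM (SN-38 1 microM), half-log dilutions; 37 degrees C, 5% CO2.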

[1] = second compound 0.0316 µM, first compound 0.0316 µM
[2] = second compound 0.0316 µM, first compound 0.1 µM
[3] = second compound 0.0316 µM, first compound 0.316 µM
[4] = second compound 0.0316 µM, first compound 1 µM
[5] = second compound 0.0316 µM, first compound 3.16 µM
[6] = second compound 0.0316 µM, first compound 10 µM
[7] = second compound 0.1 µM, first compound 0.0316 µM
[8] = second compound 0.1 µM, first compound 0.1 µM
[9] = second compound 0.1 µM, first compound 0.316 µM
[10] = second compound 0.1 µM, first compound 1 µM
[11] = second compound 0.1 µM, first compound 3.16 µM
[12] = second compound 0.1 µM, first compound 10 µM
[13] = second compound 0.316 µM, first compound 0.0316 µM
[14] = second compound 0.316 µM, first compound 0.1 µM
[15] = second compound 0.316 µM, first compound 0.316 µM
[16] = second compound 0.316 µM, first compound 1 µM
[17] = second compound 0.316 µM, first compound 3.16 µM
[18] = second compound 0.316 µM, first compound 10 µM
[19] = second compound 1 µM, first compound 0.0316 µM
[20] = second compound 1 µM, first compound 0.1 µM
[21] = second compound 1 µM, first compound 0.316 µM
[22] = second compound 1 µM, first compound 1 µM
[23] = second compound 1 µM, first compound 3.16 µM
[24] = second compound 1 µM, first compound 10 µM
[25] = second compound 3.16 µM, first compound 0.0316 µM
[26] = second compound 3.16 µM, first compound 0.1 µM
[27] = second compound 3.16 µM, first compound 0.316 µM
[28] = second compound 3.16 µM, first compound 1 µM
[29] = second compound 3.16 µM, first compound 3.16 µM
[30] = second compound 3.16 µM, first compound 10 µM
[31] = second compound 10 µM, first compound 0.0316 µM
[32] = second compound 10 µM, first compound 0.1 µM
[33] = second compound 10 µM, first compound 0.316 µM
[34] = second compound 10 µM, first compound 1 µM
[35] = second compound 10 µM, first compound 3.16 µM
[36] = second compound 10 µM, first compound 10 µM
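For viability, T/C in this document: spheroids exposed to drugs for seven days before readout.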

SMILES: O=C(Nc1ccc(O)c(NS(=O)(=O)c2ccc(F)cc2)c1)c1ccc(-c2ccccc2)cc1 + Nc1ccc(C#CCN(C(=O)Cc2ncc(C(F)(F)F)cc2C(F)(F)F)c2ccc(F)cc2)nn1
- IC50 (second compound 0.0316 µM): > 10 µM
- IC50 (second compound 0.1 µM): > 10 µM
- IC50 (second compound 0.316 µM): > 10 µM
- IC50 (second compound 1 µM): > 10 µM
- IC50 (second compound 3.16 µM): > 10 µM
- IC50 (second compound 10 µM): > 10 µM
- viability, T/C [1]: 82.5%
- viability, T/C [2]: 94.9%
- viability, T/C [3]: 91.8%
- viability, T/C [4]: 80.5%
- viability, T/C [5]: 82.2%
- viability, T/C [6]: 73.6%
- viability, T/C [7]: 91.6%
- viability, T/C [8]: 102%
- viability, T/C [9]: 82.2%
- viability, T/C [10]: 85.4%
- viability, T/C [11]: 89.1%
- viability, T/C [12]: 64.8%
- viability, T/C [13]: 100%
- viability, T/C [14]: 92.5%
- viability, T/C [15]: 98.8%
- viability, T/C [16]: 84.3%
- viability, T/C [17]: 96.3%
- viability, T/C [18]: 61.5%
- viability, T/C [19]: 98.3%
- viability, T/C [20]: 97.1%
- viability, T/C [21]: 81.3%
- viability, T/C [22]: 90%
- viability, T/C [23]: 82.2%
- viability, T/C [24]: 67.8%
- viability, T/C [25]: 92%
- viability, T/C [26]: 91.4%
- viability, T/C [27]: 89.5%
- viability, T/C [28]: 86.1%
- viability, T/C [29]: 78.8%
- viability, T/C [30]: 67.3%
- viability, T/C [31]: 82.3%
- viability, T/C [32]: 74.1%
- viability, T/C [33]: 86.9%
- viability, T/C [34]: 72.4%
- viability, T/C [35]: 80.6%
- viability, T/C [36]: 55.4%

SMILES: O=C(Nc1ccc(O)c(NS(=O)(=O)c2ccc(F)cc2)c1)c1ccc(-c2ccccc2)cc1 + Cc1cccc(N(C)C(=O)C2C(O)CCN2c2nc(C)cc(C(F)(F)F)c2C#N)c1
- IC50 (second compound 0.0316 µM): > 10 µM
- IC50 (second compound 0.1 µM): > 10 µM
- IC50 (second compound 0.316 µM): > 10 µM
- IC50 (second compound 1 µM): > 10 µM
- IC50 (second compound 3.16 µM): > 10 µM
- IC50 (second compound 10 µM): > 10 µM
- viability, T/C [1]: 90%
- viability, T/C [2]: 95.2%
- viability, T/C [3]: 93.6%
- viability, T/C [4]: 90.3%
- viability, T/C [5]: 99.6%
- viability, T/C [6]: 70.8%
- viability, T/C [7]: 98.2%
- viability, T/C [8]: 94.5%
- viability, T/C [9]: 84.1%
- viability, T/C [10]: 83.6%
- viability, T/C [11]: 96.5%
- viability, T/C [12]: 75%
- viability, T/C [13]: 86.4%
- viability, T/C [14]: 88.2%
- viability, T/C [15]: 103%
- viability, T/C [16]: 99.2%
- viability, T/C [17]: 84.8%
- viability, T/C [18]: 70.2%
- viability, T/C [19]: 95.7%
- viability, T/C [20]: 88.1%
- viability, T/C [21]: 96.6%
- viability, T/C [22]: 99.9%
- viability, T/C [23]: 92.4%
- viability, T/C [24]: 72.6%
- viability, T/C [25]: 97.5%
- viability, T/C [26]: 97.7%
- viability, T/C [27]: 89%
- viability, T/C [28]: 90.6%
- viability, T/C [29]: 84.6%
- viability, T/C [30]: 69%
- viability, T/C [31]: 92.2%
- viability, T/C [32]: 87.4%
- viability, T/C [33]: 89.2%
- viability, T/C [34]: 85.5%
- viability, T/C [35]: 93.5%
- viability, T/C [36]: 62.5%

SMILES: COc1cccc(OCCCN)c1-c1cc(Nc2cnc(C#N)cn2)n[nH]1 + Cc1cccc(N(C)C(=O)C2C(O)CCN2c2nc(C)cc(C(F)(F)F)c2C#N)c1
- IC50 (second compound 0.0316 µM): 0.0961 µM
- IC50 (second compound 0.1 µM): 0.0824 µM
- IC50 (second compound 0.316 µM): 0.157 µM
- IC50 (second compound 1 µM): 0.125 µM
- IC50 (second compound 3.16 µM): 0.0799 µM
- IC50 (second compound 10 µM): 0.0812 µM
- viability, T/C (second compound 0.0316 µM, first compound 0.00316 µM): 96.8%
- viability, T/C (second compound 0.0316 µM, first compound 0.01 µM): 75.1%
- viability, T/C [1]: 63.5%
- viability, T/C [2]: 48.8%
- viability, T/C [3]: 40.5%
- viability, T/C [4]: 34.3%
- viability, T/C (second compound 0.1 µM, first compound 0.00316 µM): 102%
- viability, T/C (second compound 0.1 µM, first compound 0.01 µM): 71.6%
- viability, T/C [7]: 61.1%
- viability, T/C [8]: 48%
- viability, T/C [9]: 42.6%
- viability, T/C [10]: 38.2%
- viability, T/C (second compound 0.316 µM, first compound 0.00316 µM): 90%
- viability, T/C (second compound 0.316 µM, first compound 0.01 µM): 75.9%
- viability, T/C [13]: 59.8%
- viability, T/C [14]: 59%
- viability, T/C [15]: 43.3%
- viability, T/C [16]: 34.4%
- viability, T/C (second compound 1 µM, first compound 0.00316 µM): 92.9%
- viability, T/C (second compound 1 µM, first compound 0.01 µM): 72.1%
- viability, T/C [19]: 62.4%
- viability, T/C [20]: 54.7%
- viability, T/C [21]: 42.3%
- viability, T/C [22]: 32.7%
- viability, T/C (second compound 3.16 µM, first compound 0.00316 µM): 98.3%
- viability, T/C (second compound 3.16 µM, first compound 0.01 µM): 77.3%
- viability, T/C [25]: 58.3%
- viability, T/C [26]: 47.5%
- viability, T/C [27]: 41.7%
- viability, T/C [28]: 33.8%
- viability, T/C (second compound 10 µM, first compound 0.00316 µM): 108%
- viability, T/C (second compound 10 µM, first compound 0.01 µM): 67.4%
- viability, T/C [31]: 64.3%
- viability, T/C [32]: 48.9%
- viability, T/C [33]: 42.5%
- viability, T/C [34]: 40.4%

SMILES: CC(C)n1c(=O)n(C)c2cnc3cc(F)c(-c4ccc(OCCCN5CCCCC5)nc4)cc3c21 + Nc1ccc(C#CCN(C(=O)Cc2ncc(C(F)(F)F)cc2C(F)(F)F)c2ccc(F)cc2)nn1
- IC50 (second compound 0.0316 µM): > 10 µM
- IC50 (second compound 0.1 µM): > 10 µM
- IC50 (second compound 0.316 µM): > 10 µM
- IC50 (second compound 1 µM): > 10 µM
- IC50 (second compound 3.16 µM): > 10 µM
- IC50 (second compound 10 µM): > 10 µM
- viability, T/C [1]: 91.9%
- viability, T/C [2]: 74%
- viability, T/C [3]: 86.2%
- viability, T/C [4]: 92.6%
- viability, T/C [5]: 81.5%
- viability, T/C [6]: 77.8%
- viability, T/C [7]: 93.8%
- viability, T/C [8]: 92.4%
- viability, T/C [9]: 77.7%
- viability, T/C [10]: 84.6%
- viability, T/C [11]: 90.7%
- viability, T/C [12]: 70.6%
- viability, T/C [13]: 80.8%
- viability, T/C [14]: 95.4%
- viability, T/C [15]: 94.5%
- viability, T/C [16]: 85.7%
- viability, T/C [17]: 89.2%
- viability, T/C [18]: 71.6%
- viability, T/C [19]: 89.3%
- viability, T/C [20]: 85.7%
- viability, T/C [21]: 90.9%
- viability, T/C [22]: 93.5%
- viability, T/C [23]: 81%
- viability, T/C [24]: 64.1%
- viability, T/C [25]: 76.5%
- viability, T/C [26]: 84%
- viability, T/C [27]: 88.9%
- viability, T/C [28]: 82.8%
- viability, T/C [29]: 81.8%
- viability, T/C [30]: 81%
- viability, T/C [31]: 85.3%
- viability, T/C [32]: 73.2%
- viability, T/C [33]: 86.8%
- viability, T/C [34]: 91.4%
- viability, T/C [35]: 78.3%
- viability, T/C [36]: 67.8%
